# Assays:
# Experiment in all cases: relative viability (nuclei count vs DMSO), 5 days (fraction); higher = more cells survive
# A-427 = system: A-427
# Outline: (§1)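 Nuclei were stained with Hoechst during a one-step fixation (final 0.05% Triton X-100, 1% formaldehyde, 1 ug/ml Hoechst) carried out 5 days after dosing, then counted on 4× images. The cells, lung cancer lines in 1536-well plates, had been dosed by pin tool the day after seeding with one drug alone or a fixed anchor-drug dose plus five library-drug doses (not always all listed) in √10 steps. Relative viability is the nuclei count in treated wells divided by that in vehicle wells, and each value is the median of duplicate plates.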
# NCI-H460 = system: NCI-H460
# Outline: as §1
# SK-LU-1 = system: SK-LU-1
# Outline: as §1
# NCI-H1792 = system: NCI-H1792
# Outline: as §1
# NCI-H1944 = system: NCI-H1944
# Outline: as §1
# NCI-H1915 = system: NCI-H1915
# Outline: as §1
# UMC-11 = system: UMC-11
# Outline: as §1
# NCI-H2170 = system: NCI-H2170
# Outline: as §1
# NCI-H358 = system: NCI-H358
# Outline: as §1
# LC-2-ad = system: LC-2-ad
# Outline: as §1
# SW 900 = system: SW 900
# Outline: as §1
# NCI-H2085 = system: NCI-H2085
# Outline: as §1
# LXF-289 = system: LXF-289
# Outline: as §1
# HOP-62 = system: HOP-62
# Outline: as §1
# NCI-H1666 = system: NCI-H1666
# Outline: as §1
# EPLC-272H = system: EPLC-272H
# Outline: as §1
# HCC-78 = system: HCC-78
# Outline: as §1
# HCC-366 = system: HCC-366
# Outline: as §1
# NCI-H2009 = system: NCI-H2009
# Outline: as §1
# NCI-H1793 = system: NCI-H1793
# Outline: as §1
# COR-L 105 = system: COR-L 105
# Outline: as §1
# LU99A = system: LU99A
# Outline: as §1
smiles,measurement,setting,value
O=c1cc(-c2cccc3c2Sc2ccccc2S3)oc(N2CCOCC2)c1 + O=C(c1cc(Cc2n[nH]c(=O)c3ccccc23)ccc1F)N1CCN(C(=O)C2CC2)CC1 [Olaparib] (partner 8 µM),relative viability,A-427; first compound 0.08 µM,0.7
same,relative viability,A-427; first compound 0.253 µM,0.776
same,relative viability,A-427; first compound 0.8 µM,0.637
same,relative viability,A-427; first compound 2.53 µM,0.684
same,relative viability,A-427; first compound 8 µM,0.777
same,relative viability,NCI-H460; first compound 0.08 µM,0.513
same,relative viability,NCI-H460; first compound 0.253 µM,0.343
same,relative viability,NCI-H460; first compound 0.8 µM,0.454
same,relative viability,NCI-H460; first compound 2.53 µM,0.451
same,relative viability,NCI-H460; first compound 8 µM,0.542
same,relative viability,SK-LU-1; first compound 0.08 µM,0.582
same,relative viability,SK-LU-1; first compound 0.253 µM,0.713
same,relative viability,SK-LU-1; first compound 0.8 µM,0.524
same,relative viability,SK-LU-1; first compound 2.53 µM,0.503
same,relative viability,SK-LU-1; first compound 8 µM,0.463
same,relative viability,NCI-H1792; first compound 0.08 µM,0.384
same,relative viability,NCI-H1792; first compound 0.253 µM,0.352
same,relative viability,NCI-H1792; first compound 0.8 µM,0.341
same,relative viability,NCI-H1792; first compound 2.53 µM,0.321
same,relative viability,NCI-H1792; first compound 8 µM,0.286
same,relative viability,NCI-H1944; first compound 0.08 µM,0.401
same,relative viability,NCI-H1944; first compound 0.253 µM,0.401
same,relative viability,NCI-H1944; first compound 0.8 µM,0.414
same,relative viability,NCI-H1944; first compound 2.53 µM,0.43
same,relative viability,NCI-H1944; first compound 8 µM,0.397
same,relative viability,NCI-H1915; first compound 0.08 µM,0.425
same,relative viability,NCI-H1915; first compound 0.253 µM,0.266
same,relative viability,NCI-H1915; first compound 0.8 µM,0.296
same,relative viability,NCI-H1915; first compound 2.53 µM,0.305
same,relative viability,NCI-H1915; first compound 8 µM,0.226
same,relative viability,UMC-11; first compound 0.08 µM,0.365
same,relative viability,UMC-11; first compound 0.253 µM,0.74
same,relative viability,UMC-11; first compound 0.8 µM,0.325
same,relative viability,UMC-11; first compound 2.53 µM,0.344
same,relative viability,UMC-11; first compound 8 µM,0.42
same,relative viability,NCI-H2170; first compound 0.08 µM,0.585
same,relative viability,NCI-H2170; first compound 0.253 µM,0.699
same,relative viability,NCI-H2170; first compound 0.8 µM,0.689
same,relative viability,NCI-H2170; first compound 2.53 µM,0.641
same,relative viability,NCI-H2170; first compound 8 µM,0.617
same,relative viability,NCI-H358; first compound 0.08 µM,0.636
same,relative viability,NCI-H358; first compound 0.253 µM,0.676
same,relative viability,NCI-H358; first compound 0.8 µM,0.589
same,relative viability,NCI-H358; first compound 2.53 µM,0.64
same,relative viability,NCI-H358; first compound 8 µM,0.719
same,relative viability,LC-2-ad; first compound 0.08 µM,0.791
same,relative viability,LC-2-ad; first compound 0.253 µM,0.83
same,relative viability,LC-2-ad; first compound 0.8 µM,0.713
same,relative viability,LC-2-ad; first compound 2.53 µM,0.649
same,relative viability,LC-2-ad; first compound 8 µM,0.64
same,relative viability,SW 900; first compound 0.253 µM,0.999
same,relative viability,SW 900; first compound 0.8 µM,0.824
same,relative viability,SW 900; first compound 2.53 µM,0.702
same,relative viability,SW 900; first compound 8 µM,0.773
same,relative viability,NCI-H2085; first compound 0.08 µM,0.771
same,relative viability,NCI-H2085; first compound 0.253 µM,0.846
same,relative viability,NCI-H2085; first compound 0.8 µM,0.857
same,relative viability,NCI-H2085; first compound 2.53 µM,0.762
same,relative viability,NCI-H2085; first compound 8 µM,0.654
same,relative viability,LXF-289; first compound 0.08 µM,1.17
same,relative viability,LXF-289; first compound 0.253 µM,1.36
same,relative viability,LXF-289; first compound 0.8 µM,1.18
same,relative viability,LXF-289; first compound 2.53 µM,1.11
same,relative viability,LXF-289; first compound 8 µM,1.21
same,relative viability,HOP-62; first compound 0.08 µM,0.374
same,relative viability,HOP-62; first compound 0.253 µM,0.52
same,relative viability,HOP-62; first compound 0.8 µM,0.543
same,relative viability,HOP-62; first compound 2.53 µM,0.49
same,relative viability,HOP-62; first compound 8 µM,0.576
same,relative viability,NCI-H1666; first compound 0.08 µM,0.691
same,relative viability,NCI-H1666; first compound 0.253 µM,0.733
same,relative viability,NCI-H1666; first compound 0.8 µM,0.681
same,relative viability,NCI-H1666; first compound 2.53 µM,0.691
same,relative viability,NCI-H1666; first compound 8 µM,0.671
same,relative viability,EPLC-272H; first compound 0.08 µM,0.986
same,relative viability,EPLC-272H; first compound 0.253 µM,0.896
same,relative viability,EPLC-272H; first compound 0.8 µM,0.998
same,relative viability,EPLC-272H; first compound 2.53 µM,0.774
same,relative viability,EPLC-272H; first compound 8 µM,0.483
same,relative viability,HCC-78; first compound 0.08 µM,0.792
same,relative viability,HCC-78; first compound 0.253 µM,0.853
same,relative viability,HCC-78; first compound 0.8 µM,0.935
same,relative viability,HCC-78; first compound 2.53 µM,0.839
same,relative viability,HCC-78; first compound 8 µM,0.734
same,relative viability,HCC-366; first compound 0.08 µM,0.421
same,relative viability,HCC-366; first compound 0.253 µM,0.507
same,relative viability,HCC-366; first compound 0.8 µM,0.406
same,relative viability,HCC-366; first compound 2.53 µM,0.483
same,relative viability,HCC-366; first compound 8 µM,0.357
same,relative viability,NCI-H2009; first compound 0.08 µM,0.746
same,relative viability,NCI-H2009; first compound 0.253 µM,0.731
same,relative viability,NCI-H2009; first compound 0.8 µM,0.798
same,relative viability,NCI-H2009; first compound 2.53 µM,0.662
same,relative viability,NCI-H2009; first compound 8 µM,0.765
same,relative viability,NCI-H1793; first compound 0.08 µM,0.815
same,relative viability,NCI-H1793; first compound 0.253 µM,1.08
same,relative viability,NCI-H1793; first compound 0.8 µM,0.899
same,relative viability,NCI-H1793; first compound 2.53 µM,0.721
same,relative viability,NCI-H1793; first compound 8 µM,0.63
same,relative viability,COR-L 105; first compound 0.08 µM,0.546
same,relative viability,COR-L 105; first compound 0.253 µM,0.665
same,relative viability,COR-L 105; first compound 0.8 µM,0.468
same,relative viability,COR-L 105; first compound 2.53 µM,0.682
same,relative viability,COR-L 105; first compound 8 µM,0.78
same,relative viability,LU99A; first compound 0.08 µM,0.251
same,relative viability,LU99A; first compound 0.253 µM,0.298
same,relative viability,LU99A; first compound 0.8 µM,0.296
same,relative viability,LU99A; first compound 2.53 µM,0.245
same,relative viability,LU99A; first compound 8 µM,0.214
